# Values quoted from earlier work as cited in patent US20230372216A1, “METHOD FOR DYEING KERATINOUS MATERIAL, COMPRISING THE USE OF AN ORGANOSILICON COMPOUND, A DYEING COMPOUND, A SEALING REAGENT AND A PRE-TREATMENT AGENT” (Henkel AG & Co. KGaA, priority 2020, published 2023).
# Conditions: 25° C.
Compound,solubility in water,solubility in water (in words)
CCN(Cc1cccc(S(=O)(=O)[O-])c1)c1ccc(C(=C2C=CC(=[N+](CC)Cc3cccc(S(=O)(=O)[O-])c3)C=C2)c2ccccc2S(=O)(=O)[O-])cc1.[Na+].[Na+] [Acid Blue 9],more than 20 wt. %,–
"Nc1cc(S(=O)(=O)[O-])cc2cc(S(=O)(=O)[O-])c(N=Nc3ccccc3)c(O)c12.[Na+].[Na+] [Acid Red 33, disodium salt of 5-amino-4-hydroxy-3-(phenylazo)-naphthalene-2,7-disulphonate]",2.5 mg/mL,–
"O=S(=O)([O-])c1ccc(N=Nc2c(O)ccc3ccccc23)cc1.[Na+] [Acid Orange 7, sodium salt of 4-[(2-hydroxy-1-naphthyl)azo]benzene sulphonate]",more than 7 g/L,–
"O=C([O-])c1c(Cl)c(Cl)c(Cl)c(Cl)c1-c1c2c(Br)cc(=O)c(Br)c-2oc2c(Br)c(O)cc(Br)c12.O=C([O-])c1c(Cl)c(Cl)c(Cl)c(Cl)c1-c1c2c(Br)cc(=O)c(Br)c-2oc2c(Br)c(O)cc(Br)c12.[Na+].[Na+] [Acid Red 92, disodium salt of 3,4,5,6-tetrachloro-2-(1,4,5,8-tetrabromo-6-hydroxy-3-oxoxanthen-9-yl)benzoic acid]",greater than 10 g/L,–

# The remaining lines, values ahead:
solubility in water,solubility in water (in words),Compound
20 mg/mL,–,"sodium salts of mono- and disulfonic acids of 2-(2-quinolyl)-1H-indene-1,3(2H)-dione [Acid Yellow 3]"
–,highly soluble in water,"O=C([O-])C1=NN(c2ccc(S(=O)(=O)[O-])cc2)C(=O)C1N=Nc1ccc(S(=O)(=O)[O-])cc1.[Na+].[Na+].[Na+] (stereo not drawn) [Acid Yellow 23, trisodium salt of 4,5-dihydro-5-oxo-1-(4-sulfophenyl)-4-((4-sulfophenyl)azo)-1H-pyrazole-3-carboxylic acid]"
